We go through nine molecules from patent US20050054582A1, “Para-amino benzoic acids as integrin antagonists” (priority 2001, published 2005).

As usually defined, the pIC50 is −log10 of the IC50, conventionally taken in molar units. In general, melting point refers to the temperature of the solid-liquid transition.

The test system of data set [1] is adhesion of Ramos cells to VCAM-1. The data set can be described thus: Adhesion of Ramos cells to immobilized VCAM-1 (domains 1-3). It is filed as cell-based. Conditions: Homo sapiens. The source says:
In Vitro Assay: Adhesion of Ramos Cells to Immobilized VCAM-1 (Domains 1-3) Preparation of VCAM-1 (Extracellular Domains 1-3)
Complementary DNA (cDNA) encoding 7-domain form of VCAM-1 (GenBank accession #M60335) was obtained using Rapid-Screen™ cDNA library panels (OriGene Technologies, Inc) at Takara Gene Analysis Center (Shiga, Japan). The primers used were 5′-CCAAGGCAGAGTACGCAAAC-3′ (sense) and 5′-TGGCAGGTATTATTAAGGAG-3′ (antisense). PCR amplification of the 3-domain VCAM-1 cDNA was perform using Pfu DNA polymerase (Stratagene) with the following sets of primers: (U-VCAMd1-3) 5′-CCATATGGTACCTGATCAATTTAAAATCGAGACCACCCCAGAA-3′; (L-VCAMdl-3) 5-CCATATAGCAATCCTAGGTCCAGGGGAGATCTCAACAGTAAA-3′. PCR cycle was 94° C. for 45 sec, 55° C. for 45 sec, 72° C. for 2 min, repeating 15 cycles. After the purification of the PCR product, the fragment was digested with KpnI-AvrII. The digested fragment was ligated into pBluescript IISK(−) (Strategene), which was linearized by digesting with KpnI-XhoI. The ligation was followed by transformation to a Dam/Dcm methylase-free E. coli strain SCS110 (Strategene) to create the donor plasmid […]. To direct VCAM-1 molecule into the insect cell secretory pathway, the VCAM-1 coding sequence was fused to signal peptide sequence of honeybee melittin. The resulting melittin-VCAM fusion was placed in correct orientation to the baculovirus polyhedrin promoter. Baculovirus transfer vector containing first 3-domain form VCAM-1 (pH10) was constructed by ligation of 0.9 kb fragment from AvrII/Klenow/BclI digests of pH7 into SalI/Klenow/BamHI digests of pMelBacB (Invitrogen). Recombinant baculovirus was generated by using Bac-N-Blue™ Transfection kit (Invitrogen) according to the manufacture's instruction. The recombinant virus was amplified by infection to High-Five™ insect cells for 5-6 days, and virus titer was determined by plaque assay.
High-Five™ insect cells were pelleted in a 225 ml conical tube by centrifugation at 1000 rpm for 5 min. After discarding the supernatant, the pellet was resuspended in 1.5×10^9 pfu (MOI=5) of high-titer virus solution, followed by incubation for 1.5 hours at room temperature. The cells were pelleted again and washed once in fresh Express Five™ serum free medium. The cells were pelleted again and finally, resuspended in 200 ml of fresh Express Five TM medium, transferred to a 1,000 ml shaker flask, and incubated in a shaker at 27° C., 130 rpm, for 48 hours before the culture supernatant was collected. The purification of 3-domain form of VCAM-1 from the culture supernatant was performed by one-step anion exchange chromatography. Protein concentration was determined by using Coomassie protein assay reagent (Pierce) according to the manufacture's instruction.
Preparation of VCAM-1 Coated Microtiter Plates
Recombinant human VCAM-1 (extracellular domains 1-3) was dissolved at 1.0 μg/ml in PBS. Each well of the microtiter plates (Nalge Nunc International, Fluoronunc Cert, 437958) was coated with 100 μl of substrate or for background control with buffer alone for 15 hours at 4 C. After discarding the substrate solution, the wells were blocked using 150 μl per well of block solution (Kirkegaard Perry Laboratories, 50-61-01) for 90 minutes. The plate was washed with wash buffer containing 24 mM Tris-HCl (pH 7.4), 137 mM NaCl, […] and 2 mM MnCl2 just before addition of the assay.
In Vitro Assay using Ramos Cells
Preparation of Fluorescence Labeled Ramos Cells:
Ramos cells (American Type Culture Collection, Clone CRL-1596) were cultured in RPMI 1640 medium (Nikken Bio Medical Laboratory, CM1101) supplemented with 10% fetal bovine serum (Hyclone, A-1119-L), 100 U/ml penicilin (Gibco BRL, 15140-122) and 100 μg/ml streptomycin (Gibco BRL, 15140-122) in a humidified incubator at 37° C. with 5% CO2. […]

Each structure is given as a SMILES string. pIC50: −log10 of the molar value. Like-named read-outs stand apart in the source and are kept apart here.

`COCCCN(CC(=O)Nc1ccc(C(=O)O)cc1)C(=O)Cc1ccc(NC(=O)Nc2ccccc2C)cc1` [Example 38] gave a melting point of 210 to 218 °C. Also, the pIC50 in data set [1] (Ramos) was > 6.30.

`COCCCN(CC(=O)N(CC(C)C)c1ccc(C(=O)O)cc1)C(=O)Cc1ccc(NC(=O)Nc2ccccc2C)cc1` [Example 52, 4-[isobutyl(N-(3-methoxypropyl)-V-{[4-({[(2-methylphenyl)amino]carbonyl}amino)phenyl]acetyl}glycyl)amino]benzoic acid] displayed a melting point of 76 to 76.5 °C. Besides, the pIC50 in data set [1] (Ramos) was < 5.00.

In the case of `O=C(CN(CCc1ccccc1)C(=O)Cc1ccc2nc(Nc3ccccc3)oc2c1)Nc1ccc(C(=O)O)cc1` [Example 75, 4-{[N-[(2-anilino-1,3-benzoxazol-6-yl)acetyl]-N-(2-phenylethyl)glycyl]-amino}benzoic acid], the melting point fell in the range of 160 to 162 °C. For the same molecule, the pIC50 in data set [1] (Ramos) was > 6.30.

In turn, `O=C(CN(CCc1ccc(Oc2ccc(Cl)cc2)cc1)C(=O)Cc1ccc2nc(Nc3ccccc3)oc2c1)Nc1ccc(C(=O)O)cc1` [Example 80] returned a melting point of 156 to 158 °C. Moreover, in data set [1] (Ramos), the pIC50 was < 5.00.

In turn, `Cc1ccccc1NC(=O)Nc1ccc(CC(=O)NC(CC(C)C)C(=O)Nc2ccc(C(=O)O)cc2)cc1` (stereo not drawn) [Example 37] had a melting point of 219 to 223 °C. The pIC50 in data set [1] (Ramos) was > 6.30.

The molecule `Cc1ccccc1NC(=O)Nc1ccc(CC(=O)NCC(=O)Nc2ccc(C(=O)O)cc2)cc1` [Example 39, 4-[(N-{[4-({[(2-methylphenyl)amino]carbonyl}amino)phenyl]acetyl}glycyl)amino]benzoic acid] displayed a melting point of 268 to 271 °C. In addition, the pIC50 in data set [1] (Ramos) was > 6.30.

With `Cc1ccccc1NC(=O)Nc1ccc(CC(=O)NC2CCN(c3ccc(C(=O)O)cc3)C2)cc1` (stereo not drawn) [Example 50, 4-[3-({[4-({[(2-methylphenyl)amino]carbonyl}amino)phenyl]acetyl}amino)-1-pyrrolidinyl]benzoic acid], the melting point is 239 to 242 °C. Also, the pIC50 in data set [1] (Ramos) was > 6.30.

In turn, `Cc1ccccc1NC(=O)Nc1ccc(CC(=O)N[C@H](CCCCN)C(=O)Nc2ccc(C(=O)O)cc2)cc1.O=C(O)C(F)(F)F` [Example 54, 4-[(N^2-{[4-({[(2-methylphenyl)amino]carbonyl}amino)phenyl]acetyl}-D-lysyl)amino]benzoic acid trifluoroacetate] returned a melting point of 73 to 75 °C. In data set [1] (observed IC50 value ranges, Table 4 does not say whether Ramos-VCAM-1 or Jurkat-VCAM-1, read-out: IC50), the pIC50 was > 6.30.

With `O=C(CN(CCc1ccccn1)C(=O)Cc1ccc2nc(Nc3ccccc3)oc2c1)Nc1ccc(C(=O)O)cc1` [Example 76, 4-({N-[(2-anilino-1,3-benzoxazol-6-yl)acetyl]-N-[2-(2-pyridinyl)ethyl]glycyl}amino)benzoic acid], the melting point fell in the range of 252 to 253 °C. In data set [1] (Ramos), the negative logarithm of the IC50 (pIC50) was > 6.30.
